The assay concerns the target T1, DβH (Homo sapiens, UniProt P09172).
T1 construct: 125 μL of plasma (or saline for blank reaction or standard curve); tissue Instituto Português do Sangue Transplantação, Centro Sangue Transplantação, Porto, Portugal; host or cells: human plasma from healthy donors
T1 sequence (P09172 40-617 limits assumed): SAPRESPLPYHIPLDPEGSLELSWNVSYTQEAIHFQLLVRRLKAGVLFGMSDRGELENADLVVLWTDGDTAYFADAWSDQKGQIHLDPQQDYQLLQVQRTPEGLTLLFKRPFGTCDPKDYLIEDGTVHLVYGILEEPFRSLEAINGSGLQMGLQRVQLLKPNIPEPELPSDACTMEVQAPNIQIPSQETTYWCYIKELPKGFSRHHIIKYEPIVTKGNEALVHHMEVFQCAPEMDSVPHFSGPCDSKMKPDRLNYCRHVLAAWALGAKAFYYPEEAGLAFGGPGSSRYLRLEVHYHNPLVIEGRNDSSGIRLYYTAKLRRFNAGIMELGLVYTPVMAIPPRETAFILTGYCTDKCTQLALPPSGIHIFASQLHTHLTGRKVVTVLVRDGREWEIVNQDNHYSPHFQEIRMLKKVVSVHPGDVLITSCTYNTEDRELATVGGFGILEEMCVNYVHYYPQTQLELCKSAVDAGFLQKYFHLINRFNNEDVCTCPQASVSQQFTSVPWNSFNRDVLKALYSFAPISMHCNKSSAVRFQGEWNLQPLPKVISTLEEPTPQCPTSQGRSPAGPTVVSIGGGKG
Nature of the assay: Dopamine-β-hydroxylase inhibition assay in human plasma. Type of assay: biochemical. The conditions noted are these: for DβH (0.01 μM) / remaining activity at 0.01 µM: DβH activity in human plasma at 0.01 μM inhibitor; for DβH (0.1 μM) / remaining activity at 0.1 µM: DβH activity in human plasma at 0.1 μM inhibitor; for IC50: human plasma, curve fitting of 6 concentrations (100 nM to 0.3 nM). As to the method: The ability of a compound to inhibit DβH activity may be assessed in human plasma using the following assay.
Dopamine beta hydroxylase activity in human plasma was measured by the method of Nagatsu and Udenfriend (Nagatsu, T. and Udenfriend, S. “Photometric assay of dopamine-p-hydroxylase activity in human blood.” Clin. Chem. 18(9) 980-983, 1972) with minor modifications. Catalase, N-ethylmaleimide, tyramine, disodium fumarate, pargyline, sodium acetate, ascorbic acid, copper sulfate and octopamine were obtained from Sigma Chemical Co., St. Louis, Mo. 63178. Human plasma samples were obtained from healthy donors (Instituto Português do Sangue Transplantação, Centro Sangue Transplantação, Porto, Portugal). From date of collection, plasma was stored at −80° C. until use. Test compounds were initially prepared in dimethyl sulfoxide at a concentration of 10 mM and diluted in dimethyl sulfoxide to the required concentrations. Test compounds were further diluted in ultrapure water to a concentration 20-fold to that of the final concentration to be tested. Final concentrations of test compounds were 10 and 100 nM. The various reagents used to make up the incubation buffer were premixed and consisted of the following components: sodium acetate buffer (1 M, pH 5.0, 18 mL), sodium fumarate (0.2 M, 4.5 mL), ascorbic acid (0.2 M, 4.5 ml, freshly prepared), pargyline (20 mM, freshly prepared, 4.5 mL), N-ethylmaleimide (0.2 M, 4.5 mL), catalase (10 000 U/mL, 9 mL), copper sulfate (20 μM, 4.5 mL) and 4.5 ultrapure water. The standard incubation mixture (total volume, 950 μL) contained: 50 μL of compound or vehicle (dimethyl sulfoxide 2%); 700 μL of incubation buffer; 125 μL of plasma (or saline for blank reaction or standard curve); 75 μL of saline. The reaction mixture was placed in water bath, shaking at 37° C. and pre-incubated for 10 minutes. Tyramine (0.5 M) was added and incubation proceeded for 45 minutes. The reaction contents were exposed to air. A sample of enzyme preparation (with 125 μL of plasma) that had been added perchloric acid 2 M at the end of the pre-incubation period was used as blank. A blank for each of the tested compounds was used. For octopamine standard curve, perchloric acid 2 M was replaced by increasing concentrations of octopamine prepared in perchloric acid 2 M (0.5, 1, 2.5, 5, 7.5, 10, 15, 20 μg/mL, final concentration). The incubation was stopped by adding 200 μL of 2 M molar perchloric acid, and the mixture was centrifuged at 9000 g for 5 min. The supernatant fluid (800 μL) was transferred to a column (SPE cartridge ISOLUTE SCX-3, 100 mg) and centrifuged at 150 g for 2 min. The column was washed two more times with 0.5 ml of ultrapure water by centrifuging at 150 g for 2 min. The adsorbed octopamine was eluted twice with 0.3 mL of 4 M ammonium hydroxide by centrifuging at 150 g for 2 min. Octopamine in the eluate was then converted to p-hydroxybenzaldehyde by adding 200 μL of sodium periodate (2%) and incubating for 6 min. Excess periodate was than reduced by adding 200 μL of sodium metabisulfite (10%). Absorbance was measured at […] in a 96-well plate by use of a SpectraMAX plus 384 (Molecular Devices) with software SOFTmax® PRO Software 5.3 spectrophotometer. Absorbance was linear with octopamine concentration from 0.5 to 20 μg/mL. Dopamine beta hydroxylase activity is determined as nmol of octopamine formed/mL of plasma/hour and effect of compounds is presented as % control. Results are reported in the table below as activity in % of control at the inhibitor concentration tested.
IC50 values of selected compounds were calculated based on curve fitting of results of 6 different compound concentrations (100 nM to 0.3 nM). IC50 data are reported in nM concentration.

Structures can show the parent of a compound that is named as a salt.

In general, IC50 refers to the midpoint of a concentration-inhibition curve. Low readings indicate higher potency, high ones lower potency. For orientation: remaining activity means the share of the control activity or signal that is left under treatment. Low readings indicate a large loss of activity, high ones a small loss of activity.

Take `Cl.Fc1ccc(F)c([C@H]2Cc3c(CCCN4CCOCC4)[nH]c(=S)n3C2)c1F` [Example 1, (R)-1-(3-morpholinopropyl)-6-(2,3,6-trifluorophenyl)-2,5,6,7-tetrahydro-3H-pyrrolo[1,2-c]imidazole-3-thione hydrochloride]: the “DβH (0.01 μM)” value is 64.6 % of Control, the “DβH (0.1 μM)” value is 12.9 % of Control and the IC50 stood at 12.7 nM.

`NCCCc1[nH]c(=S)n2c1C[C@H](c1c(F)ccc(F)c1F)C2` [Example 2, (R)-1-(3-aminopropyl)-6-(2,3,6-trifluorophenyl)-2,5,6,7-tetrahydro-3H-pyrrolo[1,2-c]imidazole-3-thione] gave a remaining activity at 0.01 µM of 98.4% and a remaining activity at 0.1 µM of 66.6%.

The molecule `Fc1ccc(F)c([C@H]2Cc3c(CCCNCC4CCOCC4)[nH]c(=S)n3C2)c1F` [Example 3, (R)-1-(3-(((tetrahydro-2H-pyran-4-yl)methyl)amino)propyl)-6-(2,3,6-trifluorophenyl)-2,5,6,7-tetrahydro-3H-pyrrolo[1,2-c]imidazole-3-thione] showed a remaining activity at 0.01 µM of 57.3%, a remaining activity at 0.1 µM of 15.5% and an IC50 of 9.5 nM.

As to `Cl.NCCCc1[nH]c(=S)n2c1C[C@H](c1c(F)ccc(F)c1F)C2` [Example 4, (R)-1-(3-aminopropyl)-6-(2,3,6-trifluorophenyl)-2,5,6,7-tetrahydro-3H-pyrrolo[1,2-c]imidazole-3-thione hydrochloride], the “DβH (0.01 μM)” value was 82.7 % of Control and the “DβH (0.1 μM)” value is given as 54.2 % of Control.

In the case of `Fc1ccc(F)c([C@H]2Cc3c(CCCNC4CCOCC4)[nH]c(=S)n3C2)c1F` [Example 5, (R)-1-(3-((tetrahydro-2H-pyran-4-yl)amino)propyl)-6-(2,3,6-trifluorophenyl)-2,5,6,7-tetrahydro-3H-pyrrolo[1,2-c]imidazole-3-thione], the remaining activity at 0.01 µM amounted to 42.5%, the remaining activity at 0.1 µM turned out to be 5.4% and the IC50 was 12.7 nM.

The molecule `Fc1ccc(F)c([C@H]2Cc3c(CCCN4CCOCC4)[nH]c(=S)n3C2)c1F` [Example 6, (R)-1-(3-morpholinopropyl)-6-(2,3,6-trifluorophenyl)-2,5,6,7-tetrahydro-3H-pyrrolo[1,2-c]imidazole-3-thione] had a remaining activity at 0.01 µM of 63.6%, a remaining activity at 0.1 µM of 10.4% and an IC50 of 11.6 nM.

As for `Cl.Fc1ccc(F)c([C@H]2Cc3c(CCCN4CC[C@@H](F)C4)[nH]c(=S)n3C2)c1F` [Example 7, (R)-1-(3-((R)-3-fluoropyrrolidin-1-yl)propyl)-6-(2,3,6-trifluorophenyl)-2,5,6,7-tetrahydro-3H-pyrrolo[1,2-c]imidazole-3-thione hydrochloride], the remaining activity at 0.01 µM stood at 42.5%, the “DβH (0.1 μM)” value is listed as 3.0 % of Control and half-maximal inhibition (IC50) required 8.3 nM.

Regarding `CN(C)CCCc1[nH]c(=S)n2c1C[C@H](c1c(F)ccc(F)c1F)C2` [Example 8, (R)-1-(3-(dimethylamino)propyl)-6-(2,3,6-trifluorophenyl)-2,5,6,7-tetrahydro-3H-pyrrolo[1,2-c]imidazole-3-thione], the “DβH (0.01 μM)” value is 113.4 % of Control and the remaining activity at 0.1 µM was 52.8%.

`Fc1ccc(F)c([C@H]2Cc3c(CCCN[C@H]4CCCOC4)[nH]c(=S)n3C2)c1F` [Example 9, (R)-1-(3-(((S)-tetrahydro-2H-pyran-3-yl)amino)propyl)-6-(2,3,6-trifluorophenyl)-2,5,6,7-tetrahydro-3H-pyrrolo[1,2-c]imidazole-3-thione] showed a remaining activity at 0.01 µM of 48.1%, a remaining activity at 0.1 µM of 12.2% and an IC50 of 19.1 nM.

Consider `CN(C)CCCc1[nH]c(=S)n2c1C[C@H](c1c(F)ccc(F)c1F)C2.Cl` [Example 10, (R)-1-(3-(dimethylamino)propyl)-6-(2,3,6-trifluorophenyl)-2,5,6,7-tetrahydro-3H-pyrrolo[1,2-c]imidazole-3-thione hydrochloride], for which the “DβH (0.01 μM)” value was 86.2 % of Control and the “DβH (0.1 μM)” value is 45.8 % of Control.

Take `Fc1ccc(F)c([C@H]2Cc3c(CCCN4CC[C@@H](F)C4)[nH]c(=S)n3C2)c1F` [Example 11, (R)-1-(3-((R)-3-fluoropyrrolidin-1-yl)propyl)-6-(2,3,6-trifluorophenyl)-2,5,6,7-tetrahydro-3H-pyrrolo[1,2-c]imidazole-3-thione]: the “DβH (0.01 μM)” value was 40.6 % of Control, the “DβH (0.1 μM)” value is listed as 7.7 % of Control and half-maximal inhibition (IC50) required 7.2 nM.

Molecule `CN(CCCc1[nH]c(=S)n2c1C[C@H](c1c(F)ccc(F)c1F)C2)C1CCOCC1` [Example 12, (R)-1-(3-(methyl(tetrahydro-2H-pyran-4-yl)amino)propyl)-6-(2,3,6-trifluorophenyl)-2,5,6,7-tetrahydro-3H-pyrrolo[1,2-c]imidazole-3-thione] gave a remaining activity at 0.01 µM of 71.2%, a remaining activity at 0.1 µM of 18.9% and an IC50 of 20.9 nM.

Take `CN(CCCc1[nH]c(=S)n2c1C[C@H](c1c(F)ccc(F)c1F)C2)C1CCOC1` (stereo partly drawn) [Example 13, (6R)-1-(3-(methyl(tetrahydrofuran-3-yl)amino)propyl)-6-(2,3,6-trifluorophenyl)-2,5,6,7-tetrahydro-3H-pyrrolo[1,2-c]imidazole-3-thione hydrochloride]: the remaining activity at 0.01 µM is 69.9%, the remaining activity at 0.1 µM was found to be 29.3% and the concentration for half-maximal inhibition (IC50) stood at 22.2 nM.

Take `CN(CCCc1[nH]c(=S)n2c1C[C@H](c1c(F)ccc(F)c1F)C2)C1CCOCC1.Cl` [Example 14, (R)-1-(3-(methyl(tetrahydro-2H-pyran-4-yl)amino)propyl)-6-(2,3,6-trifluorophenyl)-2,5,6,7-tetrahydro-3H-pyrrolo[1,2-c]imidazole-3-thione hydrochloride]: the “DβH (0.01 μM)” value is on record as 73.2 % of Control, the “DβH (0.1 μM)” value is on record as 19.0 % of Control and the IC50 is 33.1 nM.

`Fc1ccc(Cl)c(F)c1[C@]12C[C@H]1c1c(CCCN3CCOCC3)[nH]c(=S)n1C2` [Example 15, (5aS,6aR)-5a-(3-chloro-2,6-difluorophenyl)-1-(3-morpholinopropyl)-5,5a,6,6a-tetrahydrocyclopropa[3,4]pyrrolo[1,2-c]imidazole-3(2H)-thione hydrochloride] had a remaining activity at 0.01 µM of 13.6%, a remaining activity at 0.1 µM of 1% and a half-maximal inhibitory concentration (IC50) of 2.7 nM.

The values are drawn from US20220267331A1, “DOPAMINE-B-HYDROXYLASE INHIBITORS” (BIAL - PORTELA & CA, S.A., priority 2019, published 2022).
